Measurements published in patent US9101133B2, “Phenyl-substituted bicyclooctane-1,3-dione-derivatives” (BAYER INTELLECTUAL PROPERTY GMBH, priority 2010, dated 2015).

Experiments:
Assay in all cases: Herbicidal post-emergence action
Assay type in all cases: in vivo
[1] = test system: APESV; conditions: 100 g/ha, visual assessment after about three weeks, 100% = plants have died
Protocol: (§1) 2. Herbicidal Post-Emergence Action
(§2) • Seeds of monocotylidonous and dicotylidonous weed and crop plants are placed in sandy loam in wood fibre pots, covered with soil and cultivated in a greenhouse under good growth conditions. Two to three weeks after sowing, the test plants are treated at the one-leaf stage. The test compounds, formulated as wettable powders (WP), are then with a water application rate of 600 l/ha (converted), with 0.2% of wetting agent added, sprayed onto the green parts of the plants in different amounts. After the test plants have been kept in the greenhouse under optimum growth conditions for about three weeks, the effect of the preparations is assessed visually in comparison to untreated controls (herbicidal effect in percent: 100% effect=the plants have died, 0% effect=like control plants). […]

[2] = test system: PHAMI; conditions: 100 g/ha, visual assessment after about three weeks, 100% = plants have died
Protocol: as §1, §2

[3] = test system: POAAN; conditions: 100 g/ha, visual assessment after about three weeks, 100% = plants have died
Protocol: as §1, §2

[4] = test system: AVEFA; conditions: 100 g/ha, visual assessment after about three weeks, 100% = plants have died
[5] = test system: SETVI; conditions: 504 h, visual assessment after about three weeks, 100% = plants have died, read-out: herbicidal effect in percent, SETVI

CCOC(=O)OC1=C(c2c(CC)cc(C)cc2CC)C(=O)C2CC(C(OC)OC)CC12 (centres unmarked) [I-c-1, 2-(2,6-Diethyl-4-methylphenyl)-5-(dimethoxymethyl)-3-oxo-3,3a,4,5,6,6a-hexahydropentalen-1-yl ethyl carbonate]
herbicidal effect in percent, APESV [1]: 100%
herbicidal effect in percent, PHAMI [2]: 99%
herbicidal effect in percent, POAAN [3]: 85%
herbicidal effect in percent, AVEFA [4]: 80%
pest or weed control at 100 g/ha [5]: 97%
